Data: patent US20170007644A1, “A METHOD OF TREATING NEOPLASIA” (FUWAN PTY LTD, priority 2013, published 2017)

System: A549-GFP cells (A549/lung cancer cells)
Assay: Proliferation assay (fluorescence intensity) of A549-GFP cells treated with MLPC and/or doxorubicin
Type: cell-based, human
Conditions: doxorubicin alone 0.8 μM or 4 μM, 72 hours, FIG. 7
Procedure: Single cell suspensions of A549-GFP, A549-LG, and SKOV3-LG were obtained after trypsinization of the monolayer cultures and counted by trypan blue exclusion. In brief, the cells were seeded at various densities of 1000, 2000, 4000, 5000, 6000, and 10.000 cells into black microliter plates (Nunc) and incubated in 200 microliter culture medium for 3 days. Then the supernatant of cell culture were replaced by 100 microliter Dulbecco's Phosphate buffered saline (DPBS). The fluorescence intensity was determined by excitation and emission on fluorescent microplate reader (BMG).
Single cell suspensions of A549-GFP and SKOV3-LG were obtained by trypsinization of the monolayer cultures and counted by trypan blue exclusion. The proliferation of cancer cells, in particular the downregulation of proliferation, was evaluated by individual, simultaneous, two-stage models. MLPC and a chemotherapeutic drug were added simultaneously to A549-GFP and SKOV3-LG cells for 3 days. In a two-stage experiment, in the first stage MLPC were added to A549-GFP and SKOV3-LG cells for 3 days. In the second stage, supernatants of cells were removed and a chemotherapeutic drug was added for 3 days. […] Fluorescence intensities were determined to evaluate the effect on cancer cell proliferation of the various treatments and control.

COc1cccc2c1C(=O)c1c(O)c3c(c(O)c1C2=O)C[C@@](O)(C(=O)CO)C[C@@H]3O[C@H]1C[C@H](N)[C@H](O)[C@H](C)O1 [doxorubicin]
cancer cell proliferation (relative fluorescence intensity): significantly reduced cancer cell proliferation
